Data published in patent US11178873B2, “Cyclic N-carboxamide compounds useful as herbicides” (FMC CORPORATION, priority 2015, dated 2021).

Key:
Format in all cases: in vivo
[1] = tested on: ducksalad (Heteranthera limosa); assay: Test B flooded paddy test, ducksalad; conditions: Flood, scale 0 to 100 (0 no effect, 100 complete control), 13 to 15 d
Experimental: (§1) Plant species in the flooded paddy test selected from rice (Oryza sativa), sedge, umbrella (small-flower umbrella sedge, Cyperus difformis), ducksalad (Heteranthera limosa), and barnyardgrass (Echinochloa crus-galli) were grown to the 2-leaf stage for testing. At time of treatment, test pots were flooded to 3 cm above the soil surface, treated by application of test compounds directly to the paddy water, and then maintained at that water depth for the duration of the test. Treated plants and controls were maintained in a greenhouse for 13 to 15 d, after which time all species were compared to controls and visually evaluated. Plant response ratings, summarized in Table B, are based on a scale of 0 to 100 where 0 is no effect and 100 is complete control. A dash (-) response means no test result.

[2] = tested on: barnyardgrass (Echinochloa crus-galli); assay: Test A preemergence, barnyardgrass; conditions: 0 to 100 scale, 0 no effect, 100 complete control
Text: (§2) Seeds of plant species selected from barnyardgrass (Echinochloa crus-galli), crabgrass, large (large crabgrass, Digitaria sanguinalis), kochia (Kochia scoparia), ragweed (common ragweed, Ambrosia elatior), morningglory (Ipomoea spp.), velvetleaf (Abutilon theophrasti), ryegrass, Italian (Italian ryegrass, Lolium multiflorum), foxtail, giant (giant foxtail, Setaria faberii), wheat (Triticum aestivum), corn (Zea mays), and pigweed (Amaranthus retroflexus), were planted into a blend of loam soil and sand and treated preemergence with a directed soil spray using test chemicals formulated in a non-phytotoxic solvent mixture which included a surfactant. At the same time, plants selected from these crop and weed species and also blackgrass (Alopecurus myosuroides), and galium (catchweed bedstraw, Galium aparine), were planted in pots containing the same blend of loam soil and sand and treated with postemergence applications of test chemicals formulated in the same manner. Plants ranged in height from 2 to 10 cm and were in the one- to two-leaf stage for the postemergence treatment. Treated plants and untreated controls were maintained in a greenhouse for approximately 10 d, after which time all treated plants were compared to untreated controls and visually evaluated for injury. Plant response ratings, summarized in Table A, are based on a 0 to 100 scale where 0 is no effect and 100 is complete control. A dash (-) response means no test result.

kochia (Kochia scoparia) [3] = assay: Test A postemergence, kochia; conditions: 0 to 100 scale, 0 no effect, 100 complete control
Text: as §2

corn (Zea mays) = assay: Test A postemergence, corn; conditions: 0 to 100 scale, 0 no effect, 100 complete control
Text: as §2

[4] = tested on: sedge, umbrella (small-flower umbrella sedge, Cyperus difformis); assay: Test B flooded paddy test, sedge, umbrella; conditions: Flood, scale 0 to 100 (0 no effect, 100 complete control), 13 to 15 d
Experimental: as §1

[5] = tested on: barnyardgrass (Echinochloa crus-galli); assay: Test A postemergence, barnyardgrass; conditions: 0 to 100 scale, 0 no effect, 100 complete control
Text: as §2

[6] = tested on: ragweed (common ragweed, Ambrosia elatior); assay: Test A preemergence, ragweed; conditions: 0 to 100 scale, 0 no effect, 100 complete control
Text: as §2

[7] = tested on: foxtail, giant (giant foxtail, Setaria faberii); assay: Test A postemergence, foxtail, giant; conditions: 0 to 100 scale, 0 no effect, 100 complete control
Text: as §2

[8] = tested on: blackgrass (Alopecurus myosuroides); assay: Test A postemergence, blackgrass; conditions: 0 to 100 scale, 0 no effect, 100 complete control
Text: as §2

[9] = tested on: pigweed (Amaranthus retroflexus); assay: Test A postemergence, pigweed; conditions: 0 to 100 scale, 0 no effect, 100 complete control
Text: as §2

kochia (Kochia scoparia) [10] = assay: Test A preemergence, kochia; conditions: 0 to 100 scale, 0 no effect, 100 complete control
Text: as §2

[11] = tested on: galium (catchweed bedstraw, Galium aparine); assay: Test A postemergence, galium; conditions: 0 to 100 scale, 0 no effect, 100 complete control
Text: as §2

[12] = tested on: foxtail, giant (giant foxtail, Setaria faberii); assay: Test A preemergence, foxtail, giant; conditions: 0 to 100 scale, 0 no effect, 100 complete control
Text: as §2

[13] = tested on: ragweed (common ragweed, Ambrosia elatior); assay: Test A postemergence, ragweed; conditions: 0 to 100 scale, 0 no effect, 100 complete control
Text: as §2

[14] = tested on: barnyardgrass (Echinochloa crus-galli); assay: Test B flooded paddy test, barnyardgrass; conditions: Flood, scale 0 to 100 (0 no effect, 100 complete control), 13 to 15 d
Experimental: as §1

[15] = tested on: ryegrass, Italian (Italian ryegrass, Lolium multiflorum); assay: Test A postemergence, ryegrass, Italian; conditions: 0 to 100 scale, 0 no effect, 100 complete control
Text: as §2

[16] = tested on: ryegrass, Italian (Italian ryegrass, Lolium multiflorum); assay: Test A preemergence, ryegrass, Italian; conditions: 0 to 100 scale, 0 no effect, 100 complete control
Text: as §2

[17] = tested on: pigweed (Amaranthus retroflexus); assay: Test A preemergence, pigweed; conditions: 0 to 100 scale, 0 no effect, 100 complete control
Text: as §2

rice (Oryza sativa) = assay: Test B flooded paddy test, rice; conditions: Flood, scale 0 to 100 (0 no effect, 100 complete control), 13 to 15 d
Experimental: as §1

[18] = tested on: wheat (Triticum aestivum); assay: Test A postemergence, wheat; conditions: 0 to 100 scale, 0 no effect, 100 complete control
Text: as §2

O=C1NCC(c2ccccc2)N1C(=O)Nc1cccc(F)c1F (stereo not drawn) [Compound 12, N-(2,3-difluorophenyl)-2-oxo-5-phenyl-1-imidazolidinecarboxamide]
Plant response rating, Ducksalad ([1]; 1000 g ai/ha): 90
Plant response rating, Barnyardgrass ([2]; 125 g ai/ha): 20
Plant response rating, Barnyardgrass ([2]; 500 g ai/ha): 50
Plant response rating, Kochia (kochia (Kochia scoparia) [3]; 125 g ai/ha): 0
Plant response rating, Kochia (kochia (Kochia scoparia) [3]; 500 g ai/ha): 0
Plant response rating, Corn (corn (Zea mays); 125 g ai/ha): 0
Plant response rating, Corn (corn (Zea mays); 500 g ai/ha): 0
Plant response rating, Sedge, Umbrella ([4]; 1000 g ai/ha): 0
Plant response rating, Barnyardgrass ([5]; 125 g ai/ha): 60
Plant response rating, Barnyardgrass ([5]; 500 g ai/ha): 90
Plant response rating, Ragweed ([6]; 125 g ai/ha): 0
Plant response rating, Ragweed ([6]; 500 g ai/ha): 0
Plant response rating, Foxtail, Giant ([7]; 125 g ai/ha): 80
Plant response rating, Foxtail, Giant ([7]; 500 g ai/ha): 80
Plant response rating, Blackgrass ([8]; 125 g ai/ha): 0
Plant response rating, Blackgrass ([8]; 500 g ai/ha): 0
Plant response rating, Pigweed ([9]; 125 g ai/ha): 0
Plant response rating, Pigweed ([9]; 500 g ai/ha): 0
Plant response rating, Kochia (kochia (Kochia scoparia) [10]; 125 g ai/ha): 0
Plant response rating, Kochia (kochia (Kochia scoparia) [10]; 500 g ai/ha): 20
Plant response rating, Galium ([11]; 125 g ai/ha): 0
Plant response rating, Galium ([11]; 500 g ai/ha): 0
Plant response rating, Foxtail, Giant ([12]; 125 g ai/ha): 60
Plant response rating, Foxtail, Giant ([12]; 500 g ai/ha): 90
Plant response rating, Ragweed ([13]; 125 g ai/ha): 0
Plant response rating, Ragweed ([13]; 500 g ai/ha): 0
Plant response rating, Barnyardgrass ([14]; 1000 g ai/ha): 0
Plant response rating, Ryegrass, Italian ([15]; 125 g ai/ha): 0
Plant response rating, Ryegrass, Italian ([15]; 500 g ai/ha): 0
Plant response rating, Ryegrass, Italian ([16]; 125 g ai/ha): 0
Plant response rating, Ryegrass, Italian ([16]; 500 g ai/ha): 0
Plant response rating, Pigweed ([17]; 125 g ai/ha): 0
Plant response rating, Pigweed ([17]; 500 g ai/ha): 0
Plant response rating, Rice (rice (Oryza sativa); 1000 g ai/ha): 0
Plant response rating, Wheat ([18]; 125 g ai/ha): 0
Plant response rating, Wheat ([18]; 500 g ai/ha): 0

O=C1CCC(c2ccc(Cl)cc2)N1C(=O)Nc1ccc(F)c(F)c1F (stereo not drawn) [Compound 22]
Plant response rating, Ducksalad ([1]; 250 g ai/ha): 0
Plant response rating, Barnyardgrass ([2]; 31 g ai/ha): 0
Plant response rating, Barnyardgrass ([2]; 125 g ai/ha): 0
Plant response rating, Kochia (kochia (Kochia scoparia) [3]; 31 g ai/ha): 0
Plant response rating, Kochia (kochia (Kochia scoparia) [3]; 125 g ai/ha): 0
Plant response rating, Corn (corn (Zea mays); 31 g ai/ha): 0
Plant response rating, Corn (corn (Zea mays); 125 g ai/ha): 0
Plant response rating, Sedge, Umbrella ([4]; 250 g ai/ha): 0
Plant response rating, Barnyardgrass ([5]; 31 g ai/ha): 0
Plant response rating, Barnyardgrass ([5]; 125 g ai/ha): 0
Plant response rating, Ragweed ([6]; 31 g ai/ha): 0
Plant response rating, Ragweed ([6]; 125 g ai/ha): 0
Plant response rating, Foxtail, Giant ([7]; 31 g ai/ha): 0
Plant response rating, Foxtail, Giant ([7]; 125 g ai/ha): 0
Plant response rating, Blackgrass ([8]; 31 g ai/ha): 0
Plant response rating, Blackgrass ([8]; 125 g ai/ha): 0
Plant response rating, Pigweed ([9]; 31 g ai/ha): 0
Plant response rating, Pigweed ([9]; 125 g ai/ha): 0
Plant response rating, Kochia (kochia (Kochia scoparia) [10]; 31 g ai/ha): 0
Plant response rating, Kochia (kochia (Kochia scoparia) [10]; 125 g ai/ha): 0
Plant response rating, Galium ([11]; 31 g ai/ha): 0
Plant response rating, Galium ([11]; 125 g ai/ha): 0
Plant response rating, Foxtail, Giant ([12]; 31 g ai/ha): 0
Plant response rating, Foxtail, Giant ([12]; 125 g ai/ha): 0
Plant response rating, Ragweed ([13]; 31 g ai/ha): 0
Plant response rating, Ragweed ([13]; 125 g ai/ha): 0
Plant response rating, Barnyardgrass ([14]; 250 g ai/ha): 0
Plant response rating, Ryegrass, Italian ([15]; 31 g ai/ha): 0
Plant response rating, Ryegrass, Italian ([15]; 125 g ai/ha): 0
Plant response rating, Ryegrass, Italian ([16]; 31 g ai/ha): 0
Plant response rating, Ryegrass, Italian ([16]; 125 g ai/ha): 0
Plant response rating, Pigweed ([17]; 31 g ai/ha): 0
Plant response rating, Pigweed ([17]; 125 g ai/ha): 0
Plant response rating, Rice (rice (Oryza sativa); 250 g ai/ha): 0
Plant response rating, Wheat ([18]; 31 g ai/ha): 0
Plant response rating, Wheat ([18]; 125 g ai/ha): 0

CN1CC(c2cccc(C(F)(F)F)c2)N(C(=O)Nc2cccc(F)c2F)C1=O (stereo not drawn) [Compound 18]
Plant response rating, Ducksalad ([1]; 250 g ai/ha): 65
Plant response rating, Barnyardgrass ([2]; 31 g ai/ha): 20
Plant response rating, Barnyardgrass ([2]; 125 g ai/ha): 70
Plant response rating, Kochia (kochia (Kochia scoparia) [3]; 31 g ai/ha): 0
Plant response rating, Kochia (kochia (Kochia scoparia) [3]; 125 g ai/ha): 0
Plant response rating, Corn (corn (Zea mays); 31 g ai/ha): 0
Plant response rating, Corn (corn (Zea mays); 125 g ai/ha): 0
Plant response rating, Sedge, Umbrella ([4]; 250 g ai/ha): 0
Plant response rating, Barnyardgrass ([5]; 31 g ai/ha): 10
Plant response rating, Barnyardgrass ([5]; 125 g ai/ha): 30
Plant response rating, Ragweed ([6]; 31 g ai/ha): 0
Plant response rating, Ragweed ([6]; 125 g ai/ha): 0
Plant response rating, Foxtail, Giant ([7]; 31 g ai/ha): 10
Plant response rating, Foxtail, Giant ([7]; 125 g ai/ha): 50
Plant response rating, Blackgrass ([8]; 31 g ai/ha): 0
Plant response rating, Blackgrass ([8]; 125 g ai/ha): 0
Plant response rating, Pigweed ([9]; 31 g ai/ha): 0
Plant response rating, Pigweed ([9]; 125 g ai/ha): 0
Plant response rating, Kochia (kochia (Kochia scoparia) [10]; 31 g ai/ha): 0
Plant response rating, Kochia (kochia (Kochia scoparia) [10]; 125 g ai/ha): 0
Plant response rating, Galium ([11]; 31 g ai/ha): 0
Plant response rating, Galium ([11]; 125 g ai/ha): 0
Plant response rating, Foxtail, Giant ([12]; 31 g ai/ha): 70
Plant response rating, Foxtail, Giant ([12]; 125 g ai/ha): 80
Plant response rating, Ragweed ([13]; 31 g ai/ha): 0
Plant response rating, Ragweed ([13]; 125 g ai/ha): 0
Plant response rating, Barnyardgrass ([14]; 250 g ai/ha): 0
Plant response rating, Ryegrass, Italian ([15]; 31 g ai/ha): 0
Plant response rating, Ryegrass, Italian ([15]; 125 g ai/ha): 0
Plant response rating, Ryegrass, Italian ([16]; 31 g ai/ha): 0
Plant response rating, Ryegrass, Italian ([16]; 125 g ai/ha): 0
Plant response rating, Pigweed ([17]; 31 g ai/ha): 0
Plant response rating, Pigweed ([17]; 125 g ai/ha): 0
Plant response rating, Rice (rice (Oryza sativa); 250 g ai/ha): 0
Plant response rating, Wheat ([18]; 31 g ai/ha): 0
Plant response rating, Wheat ([18]; 125 g ai/ha): 0
